Laboratory results as given in ChEMBL document CHEMBL1629595, “Truncated tni module adjacent to the complex integron of salmonella genomic island 1 in Salmonella enterica serovar Virchow” (2009).
Values after ≈ are worked out from the molar mass of the structure shown.

Tests used:
[1] = Antibacterial activity against multidrug-resistant Salmonella enterica serovar Virchow B94 expressing floR2; format: functional, Salmonella enterica subsp. enterica serovar Virchow
[2] = Antibacterial activity against multidrug-resistant Salmonella enterica serovar Virchow B98 expressing floR2; format: functional, Salmonella enterica subsp. enterica serovar Virchow
Salmonella typhimurium = assay: Antibacterial activity against multidrug-resistant Salmonella enterica subsp. enterica serovar Typhimurium BN9181 expressing floR; format: functional
[3] = Antibacterial activity against multidrug-resistant Salmonella enterica serovar Virchow B100 expressing floR2; format: functional, Salmonella enterica subsp. enterica serovar Virchow

Row | Compound | MIC [1] [µg/mL] | MIC [2] [µg/mL] | MIC (Salmonella typhimurium) [µg/mL] | MIC [3] [µg/mL]
1 | O=C(N[C@H](CO)[C@H](O)c1ccc([N+](=O)[O-])cc1)C(Cl)Cl [CHLORAMPHENICOL] | > 256 | > 256 | 256 (≈ 792 µM) | > 256
2 | CS(=O)(=O)c1ccc([C@@H](O)[C@@H](CF)NC(=O)C(Cl)Cl)cc1 [FLORFENICOL] | 32 (≈ 89.3 µM) | 32 (≈ 89.3 µM) | 64 (≈ 179 µM) | 32 (≈ 89.3 µM)
